In patent US20150086490A1, “ORAL CARE COMPOSITIONS AND METHODS” (Colgate-Palmolive Company, priority 2009, published 2015):

Test system: MMP-13 gene expression
Test: PTH stimulated MMP-13 gene expression in UMR 106-01 cells, real time quantitative RT-PCR
Format: cell-based, rat
Details: for effect on PTH stimulated MMP-13 gene expression (in words): summary of the table's results
Procedure: Parathyroid hormone (PTH) stimulates the transcription of MMP-13. The experimental method utilizes PTH to stimulate MMP-13 transcription in UMR 106-01 cells, which are cells derived from a rat osteoblastic cell line. The UMR 106-01 cell line provides useful model system for studying effects of PTH on osteoblasts in vitro. See, e.g., Qin, L. et al. Journal of Biological Chemistry, 278(22), 19723 (2003).
The UMR 106-01 cells were cultured in Eagle's minimal essential medium (EMEM) supplemented with 25 mM Hepes 7.4, 1% nonessential amino acids, 100 units/ml penicillin, 100 μg/ml streptomycin and 5% fetal bovine serum.
UMR 106-01 cells were seeded in 12-well plates and cultured for 2-3 days in cell culture media. When cells were confluent, the cell culture media was changed to 1% fetal bovine serum (not 5% fetal bovine sertn) for overnight cell starvation. The cells were preincubated with active ingredient for 15 min and then incubated with PTH (10^−8 M) for 4 hours.
Total RNA from UMR 106-01 cells stimulated with or without PTH was isolated with TRIzol reagent. Total RNA (0.1 μg) was reverse-transcribed to cDNA with the Invitrogen Superscript kit according to the manufacturer's instructions. PCR was performed on cDNA using primers, and the sequences used are listed below. All were amplified by adding 2.5 μl of cDNA to the PCR mixture (22.5 μl) containing each primer (0.2 μM) and 12.5 μl of the Platinum SYBR Green qPCR SuperMix UDG (Invitrogen). The reactions were pre-incubated at 50° C. for 2 minutes for decontamination of dU-containing DNA by UDG, then at 95° C. for 2 minutes to inactivate UDG and activate Taq. The PCR program continued for 49 cycles of denaturation at 95° C. for 15 seconds, annealing and elongation of the primers at 60° C. for 30 seconds. Relative quantification of gene expression was determined by using the 2-delta delta CT method where fold changes in gene expression are relative to control samples. All samples were normalized to β-actin.

[1] = PTH (10^−8 M, 4 hours) + active 10 ppm (15 min preincubation)
[2] = active alone (no PTH), 10 ppm in simple solution

CC(=O)O[C@@H]1CC[C@@]2(C)[C@@H](CC[C@]3(C)[C@@H]2C(=O)C=C2[C@@H]4[C@@H](C)[C@H](C)CC[C@]4(C)CC[C@]23C)[C@@]1(C)C(=O)O [AKBBA, Acetyl keto β-boswellic acid]
fold change in MMP-13 gene expression relative to the control sample, Average [1]: 59.77 fold | fold change in MMP-13 gene expression relative to the control sample, Average [2]: 1.45 fold | effect on PTH stimulated MMP-13 gene expression (in words): decreases the expression

CC(=O)Nc1ccc(OC(=O)OC2CC(C)CCC2C(C)C)cc1 (centres unmarked) [Compound B, 4-acetamidophenyl 2-isopropyl-5-methylcyclohexyl carbonate]
fold change in MMP-13 gene expression relative to the control sample, Average [1]: 49.86 fold | fold change in MMP-13 gene expression relative to the control sample, Average [2]: 5.78 fold | effect on PTH stimulated MMP-13 gene expression (in words): decreases the expression

CC1CCC(C(C)C)C(OC(=O)Nc2ccccc2O)C1 (centres unmarked) [Compound A, 2-isopropyl-5-methylcyclohexyl 2-hydroxyphenylcarbantate]
fold change in MMP-13 gene expression relative to the control sample, Average (PTH (10^−8 M, 4 hours) + active 7 ppm (15 min preincubation)): 14.674 fold | fold change in MMP-13 gene expression relative to the control sample, Average (active alone (no PTH), 7 ppm in simple solution): 7.41 fold | effect on PTH stimulated MMP-13 gene expression (in words): decreases the expression

Oc1ccc(C=Cc2cc(O)cc(O)c2)cc1 [Resveratrol, 3,5,4′-trihydroxystilbene]
fold change in MMP-13 gene expression relative to the control sample, Average (PTH (10^−8 M, 4 hours) + active 0.1 ppm (15 min preincubation)): 46.02 fold | fold change in MMP-13 gene expression relative to the control sample, Average (PTH (10^−8 M, 4 hours) + active 1 ppm (15 min preincubation)): 19.97 fold | fold change in MMP-13 gene expression relative to the control sample, Average [1]: 1.86 fold | fold change in MMP-13 gene expression relative to the control sample, Average (PTH (10^−8 M, 4 hours) + active 50 ppm (15 min preincubation)): 0.91 fold | fold change in MMP-13 gene expression relative to the control sample, Average (PTH (10^−8 M, 4 hours) + active 100 ppm (15 min preincubation)): 0.65 fold | fold change in MMP-13 gene expression relative to the control sample, Average (active alone (no PTH), 0.1 ppm in simple solution): 1.07 fold | fold change in MMP-13 gene expression relative to the control sample, Average (active alone (no PTH), 1 ppm in simple solution): 0.71 fold | fold change in MMP-13 gene expression relative to the control sample, Average [2]: 0.65 fold | fold change in MMP-13 gene expression relative to the control sample, Average (active alone (no PTH), 50 ppm in simple solution): 0.38 fold | fold change in MMP-13 gene expression relative to the control sample, Average (active alone (no PTH), 100 ppm in simple solution): 1.09 fold | effect on PTH stimulated MMP-13 gene expression (in words): decreases the expression
